Reference: patent publication US20160168186A1, “Method of Treating Dengue Fever” (RIBOSCIENCE LLC, priority 2011, published 2016)
Read-outs that look alike come from different tables or passages of the source.

How the values were obtained:
[1] = tested on: H241: dengue virus serotype 4; assay: Dendritic Cells Infection Assay (viral RNA by real time PCR); assay type: cell-based; conditions: Dendritic cell, human primary immature monocyte derived dendritic cells, MOI 2, 24 h, dengue RNA relative to 18S rRNA
Protocol: Cryopreserved human immature monocyte derived Dendritic Cells (iDC) from individual donors were obtained from Stemcell Technologies (CAT# PB-DC001F). iDC were counted and incubated at a concentration of 15,000 cells/well (96 well plate) in RPMI 1640 media containing 10% (v/v) fetal bovine serum (FBS), 1% (v/v) penicillin/streptomycin (Invitrogen™) for 48 h at 37° C. in a 90% humidified, 5% CO2 atmosphere prior to the start of the experiment.
In a 96 well flat-bottom plate, 15000 iDC from individual donors were infected with dengue virus at a multiplicity of infection (MOI) of 2 in a volume of 50 μl for 2 h. After Infection iDCs were washed and cultured in complete RPMI media in the presence of serially diluted compounds. Each virus/drug combination was tested either in duplicate or triplicate (Depending on the availability of iDC from individual donors). Plates were incubated for 24 h at 37° C. in a 90% humidified, 5% CO2 atmosphere. After 24 h cells were washed and cellular RNA were isolated. Viral RNA and endogenous 18S rRNA control (Applied Bio Systems) was quantified by a real time PCR assay. The viability of mock-infected and infected iDC were monitored at described time points using a CellTiter Glo® (promega) assay according to manufacturer's recommendation.
Cellular RNA was isolated by PerfectPure™ RNA 96 cell kit (5 PRIME) according to manufacturer's recommendation. Transcriptor First Strand cDNA Synthesis Kit (Roche) was used to generate cDNA using random hexamer primers. […] First ΔCt was calculated by subtracting the 18S rRNA CT value from the dengue RNA CT value. ΔCts from duplicate taqman assay were averaged. […] Relative quantification was calculated using the following formula. Relative quantification=2^−averageΔΔCT. […]

dengue [2] = conditions: mouse model; cited from earlier work
dengue [3] = conditions: cited from earlier work
dengue [4] = conditions: by inhibiting the dengue 2′-O-methyltransferase NS5 domain; cited from earlier work

Structure (SMILES) | IC50 [1] [µM] | protection against dengue (dengue [2]) | adverse effects (dengue [3]; mouse model or rhesus monkey model, text does not say which) | protection against dengue (dengue [3]; rhesus monkey model) | activity against dengue in tissue culture (dengue [4])
C[C@H](NP(=O)(OC[C@@]1(N=[N+]=[N-])O[C@@H](n2cnc3c(N)ncnc32)[C@H](O)[C@@H]1O)Oc1ccccc1)C(=O)OCc1ccccc1 (stereo partly drawn) [Compound I-2, (S)-2-{[(2R,3S,4R,5R)-5-(6-Amino-purin-9-yl)-2-azido-3,4-dihydroxy-tetrahydro-furan-2-ylmethoxy]-phenoxy-phosphorylamino}-propionic acid benzyl ester] | 1.9 |  |  |  | 
[N-]=[N+]=N[C@]1(COP(=O)(N[C@@H](Cc2ccccc2)C(=O)OCc2ccccc2)Oc2cccc3ccccc23)O[C@@H](n2ccc(=O)[nH]c2=O)[C@H](O)[C@@H]1O (stereo partly drawn) [Compound I-9, (S)-2-[[(2R,3S,4R,5R)-2-Azido-5-(2,4-dioxo-3,4-dihydro-2H-pyrimidin-1-yl)-3,4-dihydroxy-tetrahydro-furan-2-ylmethoxy]-(naphthalen-1-yloxy)-phosphorylamino]-3-phenyl-propionic acid benzyl ester] | 16 |  |  |  | 
CCOC(=O)[C@H](Cc1ccccc1)NP(=O)(OC[C@@]1(N=[N+]=[N-])O[C@@H](n2ccc(=O)[nH]c2=O)[C@H](O)[C@@H]1O)Oc1cccc2ccccc12 (stereo partly drawn) [Compound I-10, (S)-2-[[(2R,3S,4R,5R)-2-Azido-5-(2,4-dioxo-3,4-dihydro-2H-pyrimidin-1-yl)-3,4-dihydroxy-tetrahydro-furan-2-ylmethoxy]-(naphthalen-1-yloxy)-phosphorylamino]-3-phenyl-propionic acid ethyl ester] | 15 |  |  |  | 
NC(=O)c1ncn([C@@H]2O[C@H](CO)[C@@H](O)[C@H]2O)n1 [Ribavirin] |  | did not show protection | induced anemia and thrombocytosis | did not show protection | works against dengue in tissue culture
